Where two headings read alike, the source gives them in different places.
Experiments:
ErbB2 kinase = target: T1, ErbB2 kinase (Homo sapiens, UniProt P04626); experiment: EGFR/ErbB2 enzymatic experiment (HTRF kinEASE-TK), ErbB2; type: biochemical; conditions: ErbB2 kinase 0.06 ng/μL, ATP 4 μM; read-out: Kinase IC50 (nM) in vitro ErbB2
T1 construct: The final concentration of ErbB2 kinase was 0.06 ng/μL
Protocol: (§1) EGFR/ErbB2 Enzymatic Experiment
(§2) Firstly, 1× reaction buffer required for the kinase was prepared, then 5× Enzymatic buffer (HEPES 20 mM pH 7.0, NaN3 0.1%, BSA 0.05%, sodium orthovanadate 0.5 mM) was diluted in HTRF kinEASE-TK kit by 1 time with deionized water, and 50 nM Supplement Enzymatic buffer (SEB REAGENT), 1 mM MnCl2, 5 mM MfCl2, 1 mM DTT were added. Secondly, 5× compound was prepared, and 10 mM test compound storage solution was diluted in multiple steps with DMSO in a 96-well compound plate to prepare 100× compound as an initial concentration, which was then used as the first concentration to carry out a 3-fold gradient dilution with DMSO to obtain a total of 10 concentrations. Then 1 μL of gradient diluent was added to 19 μL of 1× reaction buffer to prepare 5× compound for later use. Then 2 μL of 5× compound was transferred from the 96-well plate into a 384-well plate. To the compound-free control wells was added 2 μL of the following liquid: 19 μL of 1× reaction buffer with addition of 1 μL of DMSO. To the blank control well was added 2 μL of 250 mM EDTA. […] In the fourth step of reaction termination, HTRF Detection buffer was used to prepare a mixture of 2×TK Antibody-EU (K) and Sa-XL665, and the amount of TK Antibody-EU (K) was 5 μL per well. After the enzyme reaction was carried out for 30 minutes, 10 μL of the above liquid was added to a 384-well plate, and the reaction was carried out at room temperature for 1 hour. […] RFU665 nM and RFU620 nM were measured, and RFU665 nM/RFU620 nM×10000 was used as final data for analysis.

EGFR kinase = EGFR kinase (Homo sapiens, UniProt P00533); experiment: EGFR/ErbB2 enzymatic experiment (HTRF kinEASE-TK), EGFR; type: biochemical; conditions: EGFR kinase 0.06 units/μL, ATP 1.65 μM; read-out: Kinase IC50 (nM) in vitro EGFR
Protocol: as §1, §2

[1] = tested on: N87 (human gastric cancer cell NCI-N87); experiment: In vitro proliferation inhibition assay of cell lines (CellTiter-Glo), N87; type: cell-based; conditions: N87 cells, 72 hours
Protocol: (§3) In Vitro Proliferation Inhibition Assay of Cell Lines
(§4) 1. Cell culture and inoculation: on the first day of the experiment, normal cultured cells were taken, and in the exponential growth state, after digestion and dispersion, the cell density was then adjusted to 8.8×10^4 cells/mL for BT-474, and 6.6×10^4 cells/mL for N87, and 90 μL of which were inoculated to each well of a 96-well cell culture plate; after the inoculation was completed, the microplate was cultured under the conditions of 37° C. and 5% CO2 overnight. 2. Dosing to the cells: on the second day of the experiment, the microplate was taken out from the incubator, and 10 μL of 10× compound was added to each well of the microplate, setting 2 duplicate wells for each drug concentration and 9 dosing concentrations for each compound. According to different cell lines, the initial concentration of each compound was different. Upon completion of addition, the microplate was placed under the conditions of 37° C. and 5% CO2 for 72 hours. 3. Data acquisition: the microplate was taken out from the incubator and was allowed to equilibrate at room temperature for 30 minutes. 100 μL of CellTiter-Glo® Luminescent Cell Viability Assay reaction solution which had been equilibrated at room temperature was added to each well, and the reaction solution was shaken at 1300 rpm for 2 minutes at room temperature. After that, the microplate was placed in HERAEUS Multifuge X1R centrifuge, centrifuged at 2000 rpm for 1 minute, and allowed to equilibrate at room temperature for 10 minutes. The fluorescence signal value was measured on EnVision™.

[2] = tested on: BT-474 (human breast cancer cell); experiment: In vitro proliferation inhibition assay of cell lines (CellTiter-Glo), BT-474; type: cell-based; conditions: BT-474 cells, 72 hours
Protocol: as §3
as §4, with “Cell culture and inoculation: on the first day of the experiment, normal cultured cells were taken, and in the exponential growth state, after digestion and dispersion, the cell density was then adjusted to 8.8×10^4 cells/mL for BT-474, and 6.6×10^4 cells/mL for N87, and 90 μL of which were inoculated to each well of a 96-well cell culture plate; after the inoculation was completed, the microplate was cultured under the conditions of 37° C. and 5% CO2 overnight.” left out

CYP3A4 = target: T2, CYP3A4 (Homo sapiens, UniProt P08684); experiment: Direct inhibition (DI) of CYP3A4 in human liver microsomes; type: in vitro ADME; conditions: human liver microsomes 0.2 mg/mL, 10 μM compound
T2 construct: A system of 100 μL human liver microsomes; from tissue; host or cells: human liver microsomes
Protocol: (§5) Study on Direct Inhibition (DI) of CYP3A4, CYP2D6, CYP2C9, CYP2C19, CYP1A2
(§6) A system of 100 μL human liver microsomes (final concentration: 0.2 mg/mL) was used for direct inhibition under warm incubation. The system contained NADPH (final concentration: 1 mM), 10 μM compound, a positive inhibitor cocktail (Ketoconazole 10 μM, Quinidine: 10 μM, Sulfaphenazole: 100 μM, Naphthoflavone: 10 μM, Tranylcypromene 1000 μM), a negative control 10 μM DMSO and mixed probe substrates (Midazolam 10 μM, Testosterone 100 μM, Dextromethophan 10 μM, Diclofenac 20 μM, Phenetin 100 μM, Mephenytoin 100 μM). The reaction was terminated after incubation for 20 minutes. The relative activity of the enzymes was calculated by measuring the relative production of metabolites.

CYP2D6 = target: T3, CYP2D6 (Homo sapiens, UniProt P10635); experiment: Direct inhibition (DI) of CYP2D6 in human liver microsomes; type: in vitro ADME; conditions: probe Dextromethorphan, human liver microsomes 0.2 mg/mL, 10 μM compound, read-out: Direct inhibition (DI) 2D6 (Dextromethorphan)
T3 construct: A system of 100 μL human liver microsomes; from tissue; host or cells: human liver microsomes
Protocol: as §5, §6

CYP2C9 = target: T4, CYP2C9 (Homo sapiens, UniProt P11712); experiment: Direct inhibition (DI) of CYP2C9 in human liver microsomes; type: in vitro ADME; conditions: probe Diclofenac, human liver microsomes 0.2 mg/mL, 10 μM compound, read-out: Direct inhibition (DI) 2C9 (Diclofenac)
T4 construct: A system of 100 μL human liver microsomes; from tissue; host or cells: human liver microsomes
Protocol: as §5, §6

CYP1A2 = target: T5, CYP1A2 (Homo sapiens, UniProt P05177); experiment: Direct inhibition (DI) of CYP1A2 in human liver microsomes; type: in vitro ADME; conditions: probe Phenacetin, human liver microsomes 0.2 mg/mL, 10 μM compound, read-out: Direct inhibition (DI) 1A2 (Phenacetin)
T5 construct: A system of 100 μL human liver microsomes; from tissue; host or cells: human liver microsomes
T5 sequence (P05177 1-516): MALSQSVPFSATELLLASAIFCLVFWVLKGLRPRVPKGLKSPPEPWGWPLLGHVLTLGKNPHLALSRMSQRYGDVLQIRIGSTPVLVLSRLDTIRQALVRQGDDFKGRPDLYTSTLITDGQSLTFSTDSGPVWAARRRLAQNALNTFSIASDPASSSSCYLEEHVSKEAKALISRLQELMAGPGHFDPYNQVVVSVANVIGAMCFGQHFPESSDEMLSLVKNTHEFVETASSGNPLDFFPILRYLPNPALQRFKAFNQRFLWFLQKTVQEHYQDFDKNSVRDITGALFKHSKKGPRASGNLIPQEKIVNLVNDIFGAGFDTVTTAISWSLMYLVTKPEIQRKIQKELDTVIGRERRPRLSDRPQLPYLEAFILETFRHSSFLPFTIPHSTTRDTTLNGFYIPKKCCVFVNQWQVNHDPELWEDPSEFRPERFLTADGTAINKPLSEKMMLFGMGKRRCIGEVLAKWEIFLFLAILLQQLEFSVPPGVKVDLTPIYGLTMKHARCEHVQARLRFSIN
Protocol: as §5, §6

CYP2C19 = target: T6, CYP2C19 (Homo sapiens, UniProt P33261); experiment: Direct inhibition (DI) of CYP2C19 in human liver microsomes; type: in vitro ADME; conditions: probe Mephenytoin, human liver microsomes 0.2 mg/mL, 10 μM compound, read-out: Direct inhibition (DI) 2C19 (Mephenytoin)
T6 construct: A system of 100 μL human liver microsomes; from tissue; host or cells: human liver microsomes
Protocol: as §5, §6

[3] = probe Midazolam, read-out: Direct inhibition (DI) 3A4 (Midazolam)
[4] = probe Testosterone, read-out: Direct inhibition (DI) 3A4 (testosterone)

Chain of EGFR kinase (P00533 25-1210): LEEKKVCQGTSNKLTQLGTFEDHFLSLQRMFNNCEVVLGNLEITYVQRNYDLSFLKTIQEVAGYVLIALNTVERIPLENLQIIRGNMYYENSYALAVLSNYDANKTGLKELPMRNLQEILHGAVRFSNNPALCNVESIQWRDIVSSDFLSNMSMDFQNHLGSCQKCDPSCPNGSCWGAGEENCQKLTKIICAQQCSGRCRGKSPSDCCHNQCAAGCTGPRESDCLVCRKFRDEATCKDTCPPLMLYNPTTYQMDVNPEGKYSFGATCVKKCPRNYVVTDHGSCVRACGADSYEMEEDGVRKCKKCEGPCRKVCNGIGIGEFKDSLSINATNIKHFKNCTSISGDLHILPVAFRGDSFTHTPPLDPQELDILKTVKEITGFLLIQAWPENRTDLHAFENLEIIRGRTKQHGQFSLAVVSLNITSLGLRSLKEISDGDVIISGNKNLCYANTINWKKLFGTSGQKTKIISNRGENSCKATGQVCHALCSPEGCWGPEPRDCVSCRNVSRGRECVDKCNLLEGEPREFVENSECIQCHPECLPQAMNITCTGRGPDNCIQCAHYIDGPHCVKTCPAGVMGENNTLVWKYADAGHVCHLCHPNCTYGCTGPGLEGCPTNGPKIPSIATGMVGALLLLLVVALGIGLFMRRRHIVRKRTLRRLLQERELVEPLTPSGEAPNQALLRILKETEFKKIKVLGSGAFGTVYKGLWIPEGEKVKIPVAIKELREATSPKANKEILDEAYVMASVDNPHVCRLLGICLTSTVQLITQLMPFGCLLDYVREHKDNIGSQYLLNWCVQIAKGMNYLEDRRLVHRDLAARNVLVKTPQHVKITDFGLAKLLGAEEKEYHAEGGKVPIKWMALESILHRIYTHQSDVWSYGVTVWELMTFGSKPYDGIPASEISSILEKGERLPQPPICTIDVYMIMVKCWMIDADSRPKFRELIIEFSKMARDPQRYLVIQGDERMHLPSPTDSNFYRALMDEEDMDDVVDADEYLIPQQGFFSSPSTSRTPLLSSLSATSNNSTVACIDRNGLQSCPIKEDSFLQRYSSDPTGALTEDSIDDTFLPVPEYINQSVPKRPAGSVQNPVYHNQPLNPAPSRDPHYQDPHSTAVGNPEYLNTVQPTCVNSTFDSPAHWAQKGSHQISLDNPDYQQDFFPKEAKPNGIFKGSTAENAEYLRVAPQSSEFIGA
T4 sequence (P11712 whole entry): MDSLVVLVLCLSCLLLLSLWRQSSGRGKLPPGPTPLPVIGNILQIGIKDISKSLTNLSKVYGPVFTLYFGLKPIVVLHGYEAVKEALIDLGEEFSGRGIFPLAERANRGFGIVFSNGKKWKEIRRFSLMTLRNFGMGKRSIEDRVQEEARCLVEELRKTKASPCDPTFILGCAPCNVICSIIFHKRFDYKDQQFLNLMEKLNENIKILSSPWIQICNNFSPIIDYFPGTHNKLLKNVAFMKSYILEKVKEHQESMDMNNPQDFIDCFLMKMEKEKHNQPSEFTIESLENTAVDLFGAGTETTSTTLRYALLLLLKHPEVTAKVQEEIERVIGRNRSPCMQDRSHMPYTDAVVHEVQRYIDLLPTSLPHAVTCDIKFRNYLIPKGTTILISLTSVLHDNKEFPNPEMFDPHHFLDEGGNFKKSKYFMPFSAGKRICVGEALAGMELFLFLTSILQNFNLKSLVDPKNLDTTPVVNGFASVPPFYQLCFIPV
T3 sequence (P10635 whole entry): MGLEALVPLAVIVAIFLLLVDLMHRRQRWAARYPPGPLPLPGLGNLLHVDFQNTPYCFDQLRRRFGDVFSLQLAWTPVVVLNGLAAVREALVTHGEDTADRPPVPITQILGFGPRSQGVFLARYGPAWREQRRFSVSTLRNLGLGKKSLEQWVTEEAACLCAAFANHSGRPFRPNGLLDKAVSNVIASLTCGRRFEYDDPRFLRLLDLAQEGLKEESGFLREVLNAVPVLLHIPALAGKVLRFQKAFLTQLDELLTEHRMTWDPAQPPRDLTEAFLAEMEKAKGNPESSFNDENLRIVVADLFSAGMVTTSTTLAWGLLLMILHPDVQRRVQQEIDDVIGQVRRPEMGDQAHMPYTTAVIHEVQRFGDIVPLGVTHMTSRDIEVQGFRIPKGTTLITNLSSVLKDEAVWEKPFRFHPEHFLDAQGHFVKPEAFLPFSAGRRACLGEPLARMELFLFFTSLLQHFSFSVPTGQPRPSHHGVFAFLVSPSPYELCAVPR
T2 sequence (P08684 whole entry): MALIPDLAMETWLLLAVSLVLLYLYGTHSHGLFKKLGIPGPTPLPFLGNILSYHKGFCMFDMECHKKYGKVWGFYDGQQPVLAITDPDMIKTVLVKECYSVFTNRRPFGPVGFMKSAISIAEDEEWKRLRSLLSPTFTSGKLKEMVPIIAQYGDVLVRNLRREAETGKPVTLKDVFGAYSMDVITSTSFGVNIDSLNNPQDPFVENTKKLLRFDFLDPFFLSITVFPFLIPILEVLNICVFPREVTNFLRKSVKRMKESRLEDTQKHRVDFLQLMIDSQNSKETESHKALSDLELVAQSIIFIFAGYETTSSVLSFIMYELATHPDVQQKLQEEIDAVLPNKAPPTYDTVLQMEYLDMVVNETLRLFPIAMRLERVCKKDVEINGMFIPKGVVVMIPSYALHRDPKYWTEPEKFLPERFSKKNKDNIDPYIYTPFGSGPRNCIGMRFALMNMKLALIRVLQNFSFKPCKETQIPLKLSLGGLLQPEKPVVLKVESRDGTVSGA
T1 sequence (P04626 23-1255): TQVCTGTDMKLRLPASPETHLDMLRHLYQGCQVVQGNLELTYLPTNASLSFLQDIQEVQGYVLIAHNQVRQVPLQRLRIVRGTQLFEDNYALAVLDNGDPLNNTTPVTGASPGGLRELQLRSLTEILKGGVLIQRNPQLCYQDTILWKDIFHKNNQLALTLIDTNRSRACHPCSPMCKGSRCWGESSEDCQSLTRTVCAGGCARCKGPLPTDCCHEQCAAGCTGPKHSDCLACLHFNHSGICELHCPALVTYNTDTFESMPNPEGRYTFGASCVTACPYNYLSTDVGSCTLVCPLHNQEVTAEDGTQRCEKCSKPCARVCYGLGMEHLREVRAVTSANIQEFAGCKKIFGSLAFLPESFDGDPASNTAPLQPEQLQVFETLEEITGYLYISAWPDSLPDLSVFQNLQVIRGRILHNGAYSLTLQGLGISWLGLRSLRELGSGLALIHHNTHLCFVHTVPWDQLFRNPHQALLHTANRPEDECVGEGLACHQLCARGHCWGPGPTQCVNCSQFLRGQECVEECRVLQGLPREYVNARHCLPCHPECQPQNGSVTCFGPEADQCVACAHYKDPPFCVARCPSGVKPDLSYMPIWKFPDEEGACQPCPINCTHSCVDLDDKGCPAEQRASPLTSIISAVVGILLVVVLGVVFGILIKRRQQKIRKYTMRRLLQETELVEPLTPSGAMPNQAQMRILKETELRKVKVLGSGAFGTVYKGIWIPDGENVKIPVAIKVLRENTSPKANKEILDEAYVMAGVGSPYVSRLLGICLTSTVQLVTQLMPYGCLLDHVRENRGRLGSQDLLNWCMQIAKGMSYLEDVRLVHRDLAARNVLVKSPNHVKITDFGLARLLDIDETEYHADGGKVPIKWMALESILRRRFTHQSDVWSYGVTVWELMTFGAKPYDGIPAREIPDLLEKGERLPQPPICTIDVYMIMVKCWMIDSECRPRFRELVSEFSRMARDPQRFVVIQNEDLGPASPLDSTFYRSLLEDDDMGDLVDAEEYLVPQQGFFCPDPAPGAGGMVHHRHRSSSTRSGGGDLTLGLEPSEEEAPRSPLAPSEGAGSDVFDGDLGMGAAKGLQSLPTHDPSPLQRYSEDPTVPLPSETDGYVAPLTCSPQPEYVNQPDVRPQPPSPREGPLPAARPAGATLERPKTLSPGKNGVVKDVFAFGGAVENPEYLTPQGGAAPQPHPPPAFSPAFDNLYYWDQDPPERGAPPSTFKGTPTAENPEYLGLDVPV
T6 sequence (P33261 whole entry): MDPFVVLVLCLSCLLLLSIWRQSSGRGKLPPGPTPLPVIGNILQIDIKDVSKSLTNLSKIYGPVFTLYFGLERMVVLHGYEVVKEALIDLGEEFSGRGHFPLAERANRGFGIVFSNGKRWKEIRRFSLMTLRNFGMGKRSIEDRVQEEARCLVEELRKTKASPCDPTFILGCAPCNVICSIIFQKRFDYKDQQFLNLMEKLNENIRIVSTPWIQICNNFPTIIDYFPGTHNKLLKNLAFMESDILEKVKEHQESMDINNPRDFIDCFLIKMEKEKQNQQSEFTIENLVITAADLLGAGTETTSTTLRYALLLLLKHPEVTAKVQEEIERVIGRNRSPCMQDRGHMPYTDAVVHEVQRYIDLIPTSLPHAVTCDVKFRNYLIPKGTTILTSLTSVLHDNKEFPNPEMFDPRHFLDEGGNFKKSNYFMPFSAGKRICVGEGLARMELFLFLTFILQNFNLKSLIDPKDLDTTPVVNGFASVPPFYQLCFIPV

Row | SMILES | IC50 (ErbB2 kinase) | IC50 (EGFR kinase) | IC50 [1] | IC50 [2] | inhibition at 20 min, 10 µM (CYP3A4; [3]) | inhibition at 20 min, 10 µM (CYP3A4; [4]) | inhibition at 20 min, 10 µM (CYP2D6) | inhibition at 20 min, 10 µM (CYP2C9) | inhibition at 20 min, 10 µM (CYP1A2) | inhibition at 20 min, 10 µM (CYP2C19)
1 | C=CC(=O)N1CCC(c2ccc3ncnc(Nc4ccc(Oc5cc6nncn6cn5)c(C)c4)c3c2)CC1 [Final product of Embodiment 4, 1-(4-(4-((4-([1,2,4]triazolo[4,3-c]pyrimidin-7-yloxy)-3-methylphenyl)amino)quinazolin-6-yl)piperidin-1-yl)propan-2-en-1-one] | 6.09 nM | 168 nM | 5.75 nM | 4.79 nM | 49% | 56% | 7% | 48% | < 0% | 23%
2 | C=CC(=O)N[C@H]1CCCN(c2ccc3ncnc(Nc4ccc(Oc5cc6nncn6cn5)c(C)c4)c3c2)C1 [Final product of Embodiment 5, (S)—N-(1-(4-((4-([1,2,4]triazolo[4,3-c]pyrimidin-7-yloxy)-3-methylphenyl)amino)quinazolin-6-yl)piperidin-3-yl)acrylamide] | 2.04 nM | 62.1 nM | 20.1 nM | 14.4 nM | 71% | 74% | 14% | 49% | 9% | 18%
3 | C=C(F)C(=O)N1CC=C(c2ccc3ncnc(Nc4ccc(Oc5cc6nncn6cn5)c(C)c4)c3c2)CC1 [Final product of Embodiment 6, 1-(4-(4-((4-([1,2,4]triazolo[4,3-c]pyrimidin-7-yloxy)-3-methylphenyl)amino)quinazolin-6-yl)-5,6-dihydropyridin-1(2H)-yl)-2-fluoropropyl-2-en-1-one] | 2.92 nM | 233 nM | 24 nM | 16.1 nM | 72% | 80% | 30% | 55% | 13% | 41%
4 | Cc1cc(Nc2ncnc3ccc(NC(=O)/C=C/[C@H]4CCCN4C)cc23)ccc1Oc1ccc2nccn2n1 [Final product of Embodiment 10] | 1.34 nM | 4.62 nM | 3.52 nM | 4.56 nM | 12% | 29% | 46% | < 0% | 14% | 9%
5 | Cc1cc(Nc2ncnc3ccc(NC(=O)/C=C/[C@H]4CCCN4C)cc23)ccc1Oc1ccn2ccnc2c1 [Final product of Embodiment 11, (R,E)-N-(4-((4-(imidazo[1,2-a]pyridin-7-yloxy)-3-methylphenyl)amino)quinazolin-6-yl)-3-(1-methylpyrrolidin-2-yl)acrylamide] | 0.73 nM | 1.02 nM | 3.18 nM | 3.27 nM | 5% | 16% | 87% | 9% | 9% | 26%
6 | Cc1cc(Nc2ncnc3ccc(NC(=O)/C=C/[C@H]4CCCN4C)cc23)ccc1Oc1ccn2ncnc2n1 [Final product of Embodiment 12, (R,E)-N-(4-((4-([1,2,4]triazolo[1,5-a]pyrimidin-5-yloxy)-3-methylphenyl)amino)quinazolin-6-yl)-3-(1-methylpyrrolidin-2-yl)-acrylamide] | 0.99 nM | 0.42 nM | 4.19 nM | 4.01 nM | < 0% | 4% | 77% | 5% | 2% | 13%
7 | CCOc1cc2ncnc(Nc3ccc(Oc4cc5nncn5cn4)c(C)c3)c2cc1NC(=O)/C=C/[C@H]1CCCN1 [Final product of Embodiment 17, (R,E)-N-(4-((4-([1,2,4]triazolo[4,3-c]pyrimidin-7-yloxy)-3-methylphenyl)amino)-7-ethoxyquinazolin-6-yl)-3-(pyrrolidin-2-yl)acrylamide] | 0.488 nM | 0.251 nM | 4.97 nM | 5.31 nM | 17% | 34% | 4% | 8% | 3% | 9%

— patent publication US11578074B2, “Nitrogenous heterocyclic compound, preparation method, intermediate, composition, and application” (SHANGHAI PHARMACEUTICALS HOLDING CO., LTD., priority 2017, dated 2023)
